Tested on: CD20-TCB-induced cytokine release
Test: CD20-TCB-induced cytokine release in non-tumor bearing humanized NSG mice (serum, Luminex)
Format: in vivo
Conditions: serum 4 hours and 24 hours after CD20-TCB; ruxolitinib 30 to 60 mg/kg
Method: FIG. 95. In vivo experiment timelines and dosing schedule.
Different doses of mTOR, JAK and Src kinase inhibitors were tested to determine the optimal dose that reduces CD20-TCB-induced cytokine release while minimally interfering with B cell depletion. […] The doses of 30 and 60 mg/kg were tested for ruxolitinib and the doses of 10 and 50 mg/kg were tested for dasatinib. To reproduce the clinical route of administration, the different kinase inhibitors were given orally (p.o.) once or twice per day as depicted in FIG. 95. Mice were bled 4 hours and 24 hours after the treatment with CD20-TCB (FIG. 95) to collect serum for cytokine level measurements by Luminex. Additionally, blood was collected 48 hours and 72 hours (termination) post treatment with CD20-TCB to measure the percentage of CD19+ B cells among human CD45+ cells by flow cytometry (FIG. 95).

N#CC[C@H](C1CCCC1)n1cc(-c2ncnc3[nH]ccc23)cn1 [ruxolitinib, Ruxolitinib]
CD20-TCB-mediated cytokine release other than IL-2 and GM-CSF: durably reduced
